The source of these data is the METLIN SMRT retention time set (Domingo-Almenara et al. 2019).

Molecules are shown by their SMILES.

This series in a line: gradient 5% acetonitrile 3 min, to 50% in 2 min, to 85% in 15 min, held 3 min, 100 µL/min. The following applies: column: Zorbax Extend-C18 2.1 x 50 mm; eluents: water / acetonitrile, 0.1% formic acid. In a few lines: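 Over 3 months, pure standards in mixtures of ~100 molecules were run by HPLC coupled to a quadrupole time-of-flight mass spectrometer in positive and negative ionization mode. The column was a Zorbax Extend-C18 (2.1 × 50 mm, 1.8 μm) at 100 μL/min, eluted with water and acetonitrile each holding 0.1% formic acid, with 40 μL dead and 900 μL dwell volumes. Retention time was determined from adduct peaks chosen by software and checked manually.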
The compound `CCOc1cccc2c1OC1(CCN(C(C)=O)CC1)N1N=C(c3ccc4c(c3)OCO4)CC21` (stereo not drawn) yielded an RP-LC retention time of 826 s.

On to `COc1ccc(S(=O)(=O)N2CCC(C(=O)Nc3ncnc4c3CCC4)CC2)cc1`, for which the RP-LC retention time was 664 s.

Consider `O=C(Nc1ccccn1)C1CCN(C(=O)C2Sc3ccccc3NC2=O)CC1` (stereo not drawn), for which the RP-LC retention time is 622 s.

Compound `Cn1nc2c(c1NC(=O)C1(c3ccc(Cl)cc3)CCCC1)CCC2` came in with an RP-LC retention time of 907 s.

Regarding `CCn1c(C(=O)NCCc2c[nH]c3ccccc23)cc2c(-c3cccs3)nn(-c3ccccc3)c21`, the RP-LC retention time came to 1150 s.

Consider `COc1ccc(-c2noc(-c3nnn4c3COC(c3ccc(C)cc3C)C4)n2)cc1` (stereo not drawn), for which the RP-LC retention time is 1250 s.

`CCOc1cc(=O)n2c(c1C(=O)NCCCN1CCCCC1)CCCCC2`: the RP-LC retention time came out at 568 s.

`COc1ccccc1C1=NN(C(C)=O)C(C)(c2cccc(OC(C)=O)c2)O1` (stereo not drawn) displayed an RP-LC retention time of 852 s.

As for `COCC1(O)CCOC2(CCN(Cc3cccc(Cl)c3)CC2)C1` (stereo not drawn), the RP-LC retention time is 612 s.

Compound `Cc1nc([N+](=O)[O-])c(N2CCCC2)n1Cc1ccccc1` displayed an RP-LC retention time of 817 s.

In turn, `COc1ccc(-c2nnc(Cc3nc(-c4ccc(SC)cc4)no3)o2)cc1` gave an RP-LC retention time of 1040 s.

The compound `COc1ccc2c(c1)C=C(C(=O)NC1CCCC1)C=CO2` had an RP-LC retention time of 918 s.

In turn, `Cc1ccc2c(=O)c(C(=O)N3CCCC3)cn(CC(=O)Nc3ccccc3Cl)c2n1` registered an RP-LC retention time of 704 s.

`COCCN1C(=O)CN(Cc2ccc(C)cc2)C(=O)C1c1cccs1` (stereo not drawn) showed an RP-LC retention time of 849 s.

`COc1cccc(NC(=O)c2cc3c(s2)CN(C2CC2)C3)c1`: the RP-LC retention time stood at 760 s.

For `COc1ccc(OCc2noc(CNC(=O)C3CC(=O)N(c4ccccc4)C3)n2)cc1` (stereo not drawn), the RP-LC retention time was found to be 736 s.

For `O=C(CN1C(=O)CCC1=O)NCC1(c2ccc(F)cc2)CC1`, the RP-LC retention time turned out to be 665 s.

Turning to `CC1(C)C(=O)Nc2ccc(S(=O)(=O)N3CCC(c4noc(-c5cccnc5)n4)C3)cc21` (stereo not drawn), the RP-LC retention time turned out to be 722 s.

Compound `Cc1cccc(NC(=O)Cn2c(N3CCOCC3)nc(C)cc2=O)c1` returned an RP-LC retention time of 672 s.

Take `COc1ccc(NC(=O)NC(C(=O)N2CCc3ccccc32)C(C)C)cc1OC` (stereo not drawn): the RP-LC retention time was 830 s.

Compound `Cn1c(N)c(S(=O)(=O)N2CCN(c3ccccc3F)CC2)c(=O)n(C)c1=O` showed an RP-LC retention time of 701 s.

Take `O=C(c1ccoc1)N1[C@H]2CC[C@@H]1c1cnc(-c3ccccc3)nc1C2`: the RP-LC retention time was 837 s.

In turn, `Cc1ccc(-c2nc(-c3ccc4c(c3)nc(C)c(=O)n4C)no2)cc1C` showed an RP-LC retention time of 1180 s.

`Cn1c(C(=O)N(Cc2ccccc2)Cc2ccccc2)cc2c(=O)n3ccccc3nc21` showed an RP-LC retention time of 1040 s.

Regarding `Cc1cc2nc(C)c(=O)n(CC(=O)NCCN(C)C)c2cc1C`, the RP-LC retention time was determined as 583 s.

For `Cc1cc(=O)n(CC(=O)Nc2cc(F)ccc2F)c(N2CCc3ccccc3C2)n1`, the RP-LC retention time stood at 849 s.

Take `O=C(CSc1ncnc2c1oc1ccccc12)Nc1ccc(F)cc1F`: the RP-LC retention time was 934 s.

Consider `Cc1cccn2c(Nc3ccccc3)c(-c3ccc(N4CCOCC4)cc3)nc12`, for which the RP-LC retention time was 684 s.

Consider `CCN(CC)Cc1ccc2c(c1)CN(C(=O)NC1CCCC1)CCO2`, for which the RP-LC retention time was determined as 558 s.

For `O=C(c1cccc(-n2cnnn2)c1)N1CC(c2nc(-c3ccccn3)no2)C1`, the RP-LC retention time was 648 s.

Regarding `CCCCNC(=O)c1nc(Nc2ccc(CC)cc2)c2ccccc2n1`, the RP-LC retention time worked out at 916 s.

Compound `Cn1cc(CCNC(=O)c2ccccc2C(F)(F)F)c2cccnc21` had an RP-LC retention time of 700 s.

`CCN(CC)C(=O)c1cc2c(s1)CCC(C(=O)Nc1ccc3c(c1)OCO3)C2` (stereo not drawn) had an RP-LC retention time of 860 s.

Consider `CCOC(=O)c1cc(S(=O)(=O)N2CC3CC(C2)c2cccc(=O)n2C3)cn1C` (stereo not drawn), for which the RP-LC retention time was determined as 704 s.

For `CCCNC(=O)C1CCCN(c2nc3ncn(CC(=O)Nc4ccc(Cl)cc4)c(=O)c3s2)C1` (stereo not drawn), the RP-LC retention time worked out at 741 s.

The compound `COc1ccc(C2(C(=O)N3CC(n4ccnc4C(C)C)C3)CC2)cc1` returned an RP-LC retention time of 626 s.

Take `C=CCn1c(=O)c2ccccc2n(Cc2nc(-c3cc(OC)c(OC)c(OC)c3)no2)c1=O`: the RP-LC retention time was determined as 948 s.

As to `Cn1ncc2c(N3CCCCC3)nc(C(=O)N3CCN(c4ccccc4Cl)CC3)nc21`, the RP-LC retention time amounted to 1030 s.

Consider `O=C1NC2(CCN(C(=O)c3ccccc3)CC2)Nc2cc(Cl)ccc21`, for which the RP-LC retention time was found to be 729 s.

On to `CCc1ccc(Oc2cc(N3CCC(C(=O)NCC(C)c4ccccc4)CC3)ncn2)cc1` (stereo not drawn), for which the RP-LC retention time is 1090 s.

`Cn1nc(Br)nc1Sc1ccccc1NC(=O)C1CC1` returned an RP-LC retention time of 763 s.

As to `CCn1ccc(C(=O)N2CC(n3ccnc3C(C)C)C2)n1`, the RP-LC retention time is 566 s.

As to `Cc1nn(-c2ccccc2)c(C)c1/C=C1\Oc2cc(O)ccc2C1=O`, the RP-LC retention time worked out at 782 s.

As for `COc1ccc(-c2cc(N3CCC(NC(=O)c4ccc(Br)cc4)C3)n[nH]2)cc1` (stereo not drawn), the RP-LC retention time was 966 s.

`COc1ccc(-c2cc(N3CCN(C(=O)NCCC(C)C)CC3)ncn2)cc1OC` had an RP-LC retention time of 658 s.

As for `CCCN1C(=O)COc2ccc(-c3csc(NC(=O)/C=C/c4ccc(OCC)c(OC)c4)n3)cc21`, the RP-LC retention time was 1090 s.

In the case of `Cc1ccc(CN2C(=O)NC3(CCN(C(=O)c4ccsc4)CC3)C2=O)cc1`, the RP-LC retention time was 778 s.

`CCCN1C(=O)C(NC(=O)c2ccccc2OC)(C(F)(F)F)C(C(=O)OC)=C1C` (stereo not drawn) displayed an RP-LC retention time of 935 s.

For the compound `O=C(c1ccc2oc(=O)n(CC(=O)N3CCc4ccccc43)c2c1)N1CCCCC1`, the RP-LC retention time is 845 s.

`COc1nn(C)cc1C(=O)NCC(c1ccco1)N1CCN(c2ccc(F)cc2)CC1` (stereo not drawn) displayed an RP-LC retention time of 581 s.

`CN(C)C(=O)CN1C(=O)COc2ccc(C(=O)N3CCN(c4ccc(F)cc4)CC3)cc21`: the RP-LC retention time turned out to be 715 s.

The compound `Cc1cc(C)n(Cc2ccc(C(=O)N3CCC(c4noc(-c5cccnc5)n4)C3)o2)n1` (stereo not drawn) displayed an RP-LC retention time of 696 s.

`O=c1n(Cc2cccc(Cl)c2)nc2ccc(S(=O)(=O)N3CCCCC3)cn12` displayed an RP-LC retention time of 989 s.

As to `CCN(CC)C(=O)c1ccc(Cn2nc(C)c(S(=O)(=O)N3CCC(C)CC3)c2C)cc1`, the RP-LC retention time turned out to be 917 s.

`COc1ccc(CNC(=O)CN2C(=O)NC(c3ccc(Cl)cc3)C3=C2COC3=O)cc1` (stereo not drawn) gave an RP-LC retention time of 780 s.

In turn, `COc1cc(NC(=O)Cn2nc(C(=O)N3CCCC3)c3ccccc32)cc(OC)c1` yielded an RP-LC retention time of 641 s.

`CC(C)c1cccc(NC(=O)Cn2nc3c(N4CCSCC4)nccn3c2=O)c1` yielded an RP-LC retention time of 930 s.

`CCOc1cccc(-c2noc(-c3nnn(Cc4nc(-c5ccccc5OC)oc4C)c3C)n2)c1` displayed an RP-LC retention time of 1190 s.

`O=C(NCc1ccc(Cl)cc1)C1CCCN(c2nn3c(=O)c4c(nc3s2)CCCC4)C1` (stereo not drawn): the RP-LC retention time was 808 s.

`COc1ccccc1-c1noc(C2CCCN2C(=O)Nc2ccccc2Cl)n1` (stereo not drawn) had an RP-LC retention time of 947 s.

In the case of `CN1CCN(c2ccc(-c3cccc(NC(=O)c4ccccc4F)c3)nn2)CC1`, the RP-LC retention time was 693 s.

The compound `CCOc1ccc(NC(=O)Cn2ccc3ccc(-c4nnc(C)o4)cc32)cc1` displayed an RP-LC retention time of 804 s.

Compound `Cn1cc(C(=O)N2CC(Oc3ccc(-c4nc(-c5ccccc5)no4)cc3)C2)cn1` came in with an RP-LC retention time of 941 s.

As to `COCCCNC(=O)C1CCN(S(C)(=O)=O)c2cc(Cl)ccc2O1` (stereo not drawn), the RP-LC retention time turned out to be 730 s.

`O=C(Cn1cnc2nc(N3CCCC3)ncc2c1=O)Nc1ccc(Cl)cc1C(F)(F)F` registered an RP-LC retention time of 782 s.

In the case of `CO[C@H]1C(=O)N(C(C)C)[C@H]1C1CCN(S(=O)(=O)c2cccnc2)CC1`, the RP-LC retention time was found to be 700 s.

The compound `O=C(NCc1nc2ccccc2n1CC(=O)N1CCCCC1)c1ccco1` yielded an RP-LC retention time of 614 s.

For `CSc1cccc(NC(=O)Cn2ncc3c(c2=O)N(CC2CC2)C(=O)CS3)c1`, the RP-LC retention time is 1190 s.

The compound `CCOc1ccc(-c2[nH]ncc2CNS(=O)(=O)Cc2cc(F)cc(F)c2)cc1` returned an RP-LC retention time of 845 s.

Turning to `Cc1cc(Cl)ccc1OCC(=O)NCC1CCOCC1`, the RP-LC retention time was 828 s.

In turn, `COc1ccc(C2C(C(=O)NC3CCCCCC3)CCC(=O)N2c2ccc(OC)cc2)cc1` (stereo not drawn) yielded an RP-LC retention time of 807 s.

The compound `COc1ccc(-c2nc3n(c2C(=O)Nc2nc(-c4ccc(C)cc4)cs2)CCS3(=O)=O)cc1` came in with an RP-LC retention time of 1060 s.

In the case of `Cc1cc(-c2ncc(CC(=O)Nc3ccc(-c4cnccn4)cn3)cc2C)ccn1`, the RP-LC retention time worked out at 652 s.

The compound `COc1ncccc1CNC(=O)COc1ccccc1` had an RP-LC retention time of 677 s.

Turning to `O=C(Cc1ccc(NC(=O)CCS(=O)(=O)c2ccccc2)cc1)NCc1cccs1`, the RP-LC retention time stood at 701 s.

Compound `Cn1c(=O)c(C(=O)NCc2ccccc2Cl)nc2cccnc21` returned an RP-LC retention time of 728 s.

`CC(C)C(=O)N1CC(c2nc(-c3ccc(F)cc3)no2)C2(CCOCC2)C1` (stereo not drawn) displayed an RP-LC retention time of 857 s.

Turning to `Cc1ccc(C)c(S(=O)(=O)N2CCc3nc(-c4ccccc4)ncc3C2)c1`, the RP-LC retention time turned out to be 1170 s.
